According to patent publication US11992473B2, “Compositions and methods for diagnosis and treatment of conditions related to the quality of aging and longevity” (Epitracker, Inc., priority 2018, dated 2024):

Legend:
Type in all cases: cell-based, human
[1] = system: Venular endothelial cells, peripheral blood mononuclear cells; test: BioMAP Diversity PLUS SAg system (T cell stimulation, Th1 type chronic inflammation); conditions: for Significant log10 reduction compared to nontreated controls: T cell proliferation / Significant log10 reduction compared to nontreated controls: Monocyte chemoattractant protein 1 (MCP-1): SAg system; for T cell proliferation: human cell system mimicking T-cell driven chronic inflammation and autoimmune diseases, concentrations ranging from 740 nm to 6.7 μM (FIG. 2)
Method: (§1) This study examined activities of small molecules discovered in dolphin serum that had protective profiles against diseases of aging which can impact quality of life and longevity. These molecules were tested across 12 human primary cell-based systems as part of DiscoverX's BioMAP Diversity Plus program. These systems are designed to model complex human tissue and disease biology of the vasculature, skin, lung, and inflammatory tissues. Quantitative measurements of biomarker activities across this broad panel, along with comparative analysis of biological activities of known bioactive agents were used to predict and compare the efficacy and function of the four compounds. Compounds were tested at four concentrations (740 nm and 2.2, 6.7 and 20 μM).
(§2) BioMAP panels consist of human primary cell-based systems designed to model different aspects of the human body in an in vitro format. The 12 systems in the Diversity PLUS panel allow test agent characterization in an unbiased way across a broad set of systems modeling various human disease states. BioMAP systems are constructed with one or more primary cell types from healthy human donors, with stimuli (such as cytokines or growth factors) added to capture relevant signaling networks that naturally occur in human tissue or pathological conditions. Vascular biology is modeled in both a Th1 (3C system) and a Th2 (4H system) inflammatory environment, as well as in a Th1 inflammatory state specific to arterial smooth muscle cells (CASM3C system). Additional systems recapitulate aspects of the systemic immune response including monocyte-driven Th1 inflammation (LPS system) or T cell stimulation (SAg system), chronic Th1 inflammation driven by macrophage activation (lMphg system) and the T cell-dependent activation of B cells that occurs in germinal centers (BT system). The BE3C system (Th1) and the BF4T system (Th2) represent airway inflammation of the lung, while the MyoF system models myofibroblast-lung tissue remodeling. Lastly, skin biology is addressed in the KF3CT system modeling Th1 cutaneous inflammation and the HDF3CGF system modeling wound healing.
Each test agent generates a signature BioMAP profile that is created from the changes in protein biomarker readouts within individual system environments. Biomarker readouts (7-17 per system) are selected for therapeutic and biological relevance, are predictive for disease outcomes or specific drug effects and are validated using agents with known mechanism of action (MoA). Each readout is measured quantitatively by immune-based methods that detect protein (e.g., ELISA) or functional assays that measure proliferation and viability. BioMAP readouts are diverse and include cell surface receptors, cytokines, chemokines, matrix molecules and enzymes. In total, the Diversity PLUS panel contains 148 biomarker readouts that capture biological changes that occur within the physiological context of the particular BioMAP system. Specific BioMAP activities have been correlated to in vivo biology, and multiparameter BioMAP profiles have been used to distinguish compounds based on MoA and target selectivity across diverse physiological systems.
The Diversity PLUS panel allows test agent characterization in an unbiased way across a broad set of systems modeling various human disease states. These systems are designed to model complex human tissue and disease biology of the vasculature, skin, lung, and inflammatory tissues. Quantitative measurements of 148 biomarker activities across this broad panel, along with comparative analysis of biological activities from known bioactive agents, were used to predict and compare the efficacy and function of each selected compound at four concentrations (740 nm and 2.2, 6.7 and 20 μM). […]

[2] = system: Peripheral blood mononuclear cells, B cells; test: BioMAP Diversity PLUS BT system (T cell dependent B cell activation)
Method: as §1, §2
(§3) Each test agent generates a signature BioMAP profile that is created from the changes in protein biomarker readouts within individual system environments. Biomarker readouts (7-17 per system) are selected for therapeutic and biological relevance, are predictive for disease outcomes or specific drug effects and are validated using agents with known mechanism of action (MoA). Each readout is measured quantitatively by immune-based methods that detect protein (e.g., ELISA) or functional assays that measure proliferation and viability. BioMAP readouts are diverse and include cell surface receptors, cytokines, chemokines, matrix molecules and enzymes.
(§4) The Diversity PLUS panel allows test agent characterization in an unbiased way across a broad set of systems modeling various human disease states. These systems are designed to model complex human tissue and disease biology of the vasculature, skin, lung, and inflammatory tissues.
(§5) BioMAP systems are constructed with one or more primary cell types from healthy human donors, with stimuli (such as cytokines or growth factors) added to capture relevant signaling networks that naturally occur in human tissue or pathological conditions. Vascular biology is modeled in both a Th1 (3C system) and a Th2 (4H system) inflammatory environment, as well as in a Th1 inflammatory state specific to arterial smooth muscle cells (CASM3C system). Additional systems recapitulate aspects of the systemic immune response including monocyte-driven Th1 inflammation (LPS system) or T cell stimulation (SAg system), chronic Th1 inflammation driven by macrophage activation (lMphg system) and the T cell-dependent activation of B cells that occurs in germinal centers (BT system).

Dermal fibroblasts = test: BioMAP Diversity PLUS HDF3CGF system (wound healing and matrix/tissue remodeling)
Method: as §1, §2, §3, §4, §5

O=C(O)Cc1c[nH]cn1 [4-imidazoleacetate]
Significant log10 reduction compared to nontreated controls: T cell proliferation ([1]; 2.2 μM): −0.11 log10
Significant log10 reduction compared to nontreated controls: T cell proliferation ([1]; 6.7 μM): −0.09 log10
Significant log10 reduction compared to nontreated controls: T cell proliferation ([1]; 20.0 μM): −0.09 log10
T cell proliferation [1]: decreased
Significant log10 reduction compared to nontreated controls: Secreted interleukin 17F (IL-17F) ([2]; BT system, 0.7 μM): −0.16 log10

O=C(O)[C@@H]1C[C@@H](O)CN1 (relative stereo) [Trans-4-hydroxyproline]
T cell proliferation [1]: decreased
interleukin 17A (IL-17A) ([2]; human cell system mimicking asthma, autoimmunity and allergies (FIG. 5)): lowered
decorin (Dermal fibroblasts; human cell system mimicking wound healing, remodeling, fibrosis and chronic inflammation (FIG. 7)): inhibitory activity

CCCCCCCCCCCCCCC(=O)O [Pentadecanoate (C15:0), pentadecanoate]
Significant log10 reduction compared to nontreated controls: Monocyte chemoattractant protein 1 (MCP-1) ([1]; 6.7 μM): −0.18 log10
Significant log10 reduction compared to nontreated controls: Monocyte chemoattractant protein 1 (MCP-1) ([1]; 20.0 μM): −0.15 log10
Significant log10 reduction compared to nontreated controls: Secreted interleukin 17A (IL-17A) ([2]; BT system, 2.2 μM): −0.25 log10
Significant log10 reduction compared to nontreated controls: Secreted interleukin 17F (IL-17F) ([2]; BT system, 2.2 μM): −0.16 log10
Significant log10 reduction compared to nontreated controls: Secreted immunoglobulin G (IgG) ([2]; BT system, 6.7 μM): −0.17 log10
Significant log10 reduction compared to nontreated controls: Secreted immunoglobulin G (IgG) ([2]; BT system, 20.0 μM): −0.55 log10
Significant log10 reduction compared to nontreated controls: Secreted interleukin 6 (IL-6) ([2]; BT system, 20.0 μM): −0.29 log10
Significant log10 reduction compared to nontreated controls: Secreted interleukin 17A (IL-17A) ([2]; BT system, 20.0 μM): −0.29 log10
Significant log10 reduction compared to nontreated controls: Secreted interleukin 17F (IL-17F) ([2]; BT system, 20.0 μM): −0.18 log10
Significant log10 reduction compared to nontreated controls: 72-hour fibroblast proliferation (Dermal fibroblasts; HDF3CGF system, 6.7 μM): −0.67 log10
Significant log10 reduction compared to nontreated controls: Collagen I (Dermal fibroblasts; HDF3CGF system, 6.7 μM): −0.07 log10
Significant log10 reduction compared to nontreated controls: Plasminogen activation inhibitor 1 (PAI-1) (Dermal fibroblasts; HDF3CGF system, 6.7 μM): −0.08 log10
Significant log10 reduction compared to nontreated controls: 72-hour fibroblast proliferation (Dermal fibroblasts; HDF3CGF system, 20.0 μM): −1.1 log10
Significant log10 reduction compared to nontreated controls: Collagen I (Dermal fibroblasts; HDF3CGF system, 20.0 μM): −0.13 log10
Significant log10 reduction compared to nontreated controls: Collagen III (Dermal fibroblasts; HDF3CGF system, 20.0 μM): −0.13 log10
Significant log10 reduction compared to nontreated controls: Interferon gamma-induced protein 10 (IP-10)/CXCL10 (Dermal fibroblasts; HDF3CGF system, 20.0 μM): −0.14 log10
Significant log10 reduction compared to nontreated controls: Interferon-inducible T cell alpha chemoattractant (I-TAC)/CXCL11 (Dermal fibroblasts; HDF3CGF system, 20.0 μM): −0.17 log10
Significant log10 reduction compared to nontreated controls: Monokine induced by gamma interferon (MIG)/CXCL9 (Dermal fibroblasts; HDF3CGF system, 20.0 μM): −0.10 log10
Significant log10 reduction compared to nontreated controls: Plasminogen activation inhibitor 1 (PAI-1) (Dermal fibroblasts; HDF3CGF system, 20.0 μM): −0.13 log10
Significant log10 reduction compared to nontreated controls: Vascular cell adhesion molecule 1 (VCAM-1) (Dermal fibroblasts; HDF3CGF system, 20.0 μM): −0.28 log10

CCCCCCC=CCCCCCCCCC(=O)O [Compound 10-heptadecanoate]
Significant log10 reduction compared to nontreated controls: Secreted interleukin 2 (IL-2) ([2]; BT system, 6.7 μM): −0.11 log10
